Reference: patent publication US10905691B2, “Use of triazolo(4,5-d)pyrimidine derivatives for prevention and treatment of bacterial infection” (Universite de Liege, priority 2016, dated 2021)

Columns and labels:
Assay type in all cases: cell-based
[1] = system: Escherichia coli (ATCC 8739); test: MBC determination with C12(ω7)Kβ12 (OAK); settings: ATCC8739, in presence of 5 μg/ml OAK, read-out: Minimal Bactericidal Concentration (MBC)
Method: Viable count in the liquid culture is estimated by counting the colony forming units (c.f.u.) on a Luria-Bertani (LB) agar plate—after 24 h incubation at 37° C.—and calculating the c.f.u. per milliliter of the liquid culture (c.f.u./ml).
The Minimal Bactericidal Concentration (MBC) of Triafluocyl in presence of 5 μg/ml OAK against Escherichia coli (ATCC 8739) is equal to 10 μg/ml (FIG. 13B).
The Minimal Bactericidal Concentration (MBC) of Fluometacyl in presence of 5 μg/ml OAK against Escherichia coli (ATCC 8739) is equal to 5 μg/ml (FIG. 14B).

[2] = system: Escherichia coli (ATCC 8739); test: MIC determination with or without polymyxin B nonapeptide (PMBN); settings: for MIC: Escherichia coli, ATCC8739, in presence of 40 μg/ml PMBN; for inhibition of E. coli growth: taken alone, concentrations up to 15 μg/ml
Method: Determination of Minimal Inhibitory Concentration (MIC) and Minimal Bactericidal Concentration (MBC) of Triafluocyl (Cayman Chemical, Item No. 15425) in presence of polymyxin B nonapeptide (PMBN) (Sigma-Aldrich Merk, Item No. P2076) against Escherichia coli (ATCC 8739). […] A single colony grown on a Luria-Bertani Agar (LB) plate was resuspended and cultured in LB medium overnight (O/N) in aerobic conditions (37° C. with 220 rpm shaking), next day a 1:50 inoculum in Mueller-Hinton broth (MHB) is incubated in aerobic conditions for 1 h30 (OD=0.08-0.1) and an inoculum corresponding to 3×10^6 colony forming unit (CFU)/ml, is incubated in presence or absence of different concentrations of Triafluocyl in 1% DMSO with or without 40 μg/ml Polymyxin B nonapeptide (PMBN) for 18 hr in aerobic conditions (37° C. with 220 rpm shaking). Growth of Escherichia coli in 7 conditions depicted in FIG. 11 is evaluated by reading the OD of each culture at 600 nm (OD600) in a spectrophotometer (Victor 3-Perkin Elmer). Determination of Minimal Inhibitory Concentration (MIC) and Minimal Bactericidal Concentration (MBC) of Fluometacyl in presence of polymyxin B nonapeptide (PMBN) (Sigma-Aldrich Merk, Item No. P2076) against Escherichia coli (ATCC 8739). The Minimal Inhibitory Concentration (MIC) represents the concentration, in a liquid culture, at which there is no visible growth of bacteria (no pellet or cloudiness), i.e. ΔOD at 600 nm equal to zero wherein ΔOD is the difference between the resulting optical density (OD) with the molecule together with PMBN, and the optical density (OD) of the blank (blank is the medium alone). A single colony grown on a Luria-Bertani Agar (LB) plate is resuspended and cultured in LB medium overnight (O/N) in aerobic conditions (37° C. with 220 rpm shaking), next day a 1:50 inoculum in Mueller-Hinton broth (MHB) is incubated in aerobic conditions for 1 h30 (OD=0.08-0.1) and an inoculum corresponding to 3×10^6 colony forming unit (CFU)/ml is incubated in presence or absence of different concentrations of Fluometacyl in 1% DMSO (vehicle) with or without 40 μg/ml Polymyxin B nonapeptide (PMBN) for 18 hr in aerobic conditions (37° C. with 220 rpm shaking). Growth of bacteria in the 7 individual cultures (FIG. 12A) is evaluated by reading the OD of each culture at 600 nm (OD600) in a spectrophotometer (Victor 3-Perkin Elmer).

[3] = system: Escherichia coli (ATCC 8739); test: MIC determination with or without C12(ω7)Kβ12 (OAK); settings: for MIC: Escherichia coli, ATCC8739, in presence of 5 μg/ml OAK; for inhibition of Escherichia coli growth: taken alone at a concentration of 10 μg/ml
Source text: (§1) Determination of Minimal Inhibitory Concentration (MIC) and Minimal Bactericidal Concentration (MBC) of Triafluocyl (purchased from Cayman Chemical, Item No. 15425) in presence of C12(ω7)Kβ12 (purchased from biomers.net, Germany) against Escherichia coli (ATCC 8739). The C12(ω7)Kβ12 was synthesized by solid-phase method as described by I. Radzishevsky in Antimicrobial Agents and Chemotherapy, May 2007 (1753-1759) (https://aac.asm.org/content/51/5/1753).
(§2) A single colony of Escherichia coli grown on a Luria-Bertani (LB) agar plate is resuspended and cultured in LB medium overnight (O/N) in aerobic conditions (37° C. with 220 rpm shaking in the New Brunswick Innova 4330 Shaker incubator). An aliquot of 100 μl such overnight Escherichia coli culture is diluted 1:50 in 5 ml Mueller-Hintom broth (MHB) and is incubated in aerobic conditions during 1 hour 30 minutes (OD=0.08-0.1) to reach the exponential phase of their growth curve. An inoculum of the exponentially growing Escherichia coli, corresponding to around 1×10^6 c.f.u./ml is then incubated in presence or absence of different concentrations of Triafluocyl in 2% DMSO with or without OAK for 24 hr in aerobic conditions (37° C. with 220 rpm shaking in the New Brunswick Innova 4330 Shaker incubator). Growth of Escherichia coli in each condition depicted in FIG. 13A is evaluated by reading the Optical Density of each culture at 600 nm (OD600) in a spectrophotometer (Victor-3, Perkin Elmer).
as §1, with “Fluometacyl (prepared according to WO 99/05143)” for “Triafluocyl (purchased from Cayman Chemical, Item No. 15425)”
as §2, with “An inoculum of the exponentially growing Escherichia coli, corresponding to around 1×10^6 c.f.u./ml is then incubated in presence or absence of different concentrations of Triafluocyl in 2% DMSO with or without OAK for 24 hr in aerobic conditions (37° C. with 220 rpm shaking in the New Brunswick Innova 4330 Shaker incubator).” left out, “14A” for “13A”

| SMILES | MBC [1] | MIC [2] | inhibition of E. coli growth [2] | MIC [3] | inhibition of Escherichia coli growth [3] |
| --- | --- | --- | --- | --- | --- |
| CCCSc1nc(N[C@@H]2C[C@H]2c2ccc(F)c(F)c2)c2nnn([C@@H]3C[C@H](OCCO)[C@@H](O)[C@H]3O)c2n1 [Triafluocyl, (1S,2S,3R,5S)-3-[7-[(1R,2S)-2-(3,4-difluorophenyl)cyclopropylamino]-5-(propylthio)-3H-[1,2,3]-triazolo[4,5-d]pyrimidin-3-yl]-5-(2-hydroxyethoxy)-1,2-cyclopentanediol] | 10 µg/mL | 5 µg/mL | unable to inhibit E. coli growth | 5 µg/mL | unable to inhibit Escherichia coli growth |
| CCCSc1nc(N[C@@H]2C[C@H]2c2ccc(F)c(F)c2)c2nnn([C@@H]3C[C@H](O)[C@@H](O)[C@H]3O)c2n1 [Fluometacyl, (1S,2R,3S,4R)-4-[7-[[(1R,2S)-2-(3,4-Difluorophenyl)cyclopropyl]amino]-5-(propylthio)-3H-1,2,3-triazolo[4,5-d]pyrimidin-3-yl]-1,2,3-cyclopentanetriol] | 5 µg/mL | 5 µg/mL | unable to inhibit E. coli growth | 5 µg/mL | unable to inhibit E. coli growth |
